pIC50: −log10 of the molar value. *1 amine or outer side, *2 acyl side, *3 side chain or, on linkers, in order; H or OH if unused. Where a SMILES comes first, the peptide text is derived from it. Bridges are numbered along the chain shown (N, C = ends). Roman numbers before positions name the chains, in order. Side-chain parts run from the residue outwards. [ ]: non-standard residue; d: D form. The star is where a group is joined. X25 = C[N+](C)(C)C[C@@H](CC(=O)O)NC(=O)CCC(=O)CCCCC[C@H](N[*:1])C(=O)[*:2]; X19 = CC(C)(S[*:2])[C@H](N[*:3])C(=O)C[C@@H](Cc1ccc(OCCN)cc1)C(=O)[*:1]; X35 = NCCOc1ccc(C[C@H](N[*:1])C(=O)CC(Cc2ccc3ccccc3c2)C(=O)[*:2])cc1; PEG12 = NCCOCCOCCOCCOCCOCCOCCOCCOCCOCCOCCOCCOCCC(=O)O; Trp(7-Me) = Cc1cccc2c(C[C@H](N)C(=O)O)c[nH]c12; C18 diacid = O=C(O)CCCCCCCCCCCCCCCCC(=O)*; γGlu = O=C(O)[C@H](CCC(=O)[*:2])N[*:1]; 2Nal = N[C@@H](Cc1ccc2ccccc2c1)C(=O)O; AEF = NCCOc1ccc(C[C@H](N)C(=O)O)cc1; X2 = C[N+](C)(C)C[C@@H](CC(=O)O)N*; 3Pal = N[C@@H](Cc1cccnc1)C(=O)O; Pen = CC(C)(S)[C@H](N)C(=O)O; Suc = O=C(CCC(=O)[*:2])[*:1]; Thp = NC1(C(=O)O)CCOCC1; AEEA = NCCOCCOCC(=O)O; Sar = CNCC(=O)O
Assays:
IL-23R = biological target: T1, IL-23R (Homo sapiens, UniProt Q5VWK5); test: IL23R Reporter Assay; format: cell-based; conditions: HEK293 cells containing IL-23R, IL-12Rβ1 and STAT-inducible firefly luciferase reporter; 10 ng/mL IL-23 (EC90); 5 h
T1 construct: HEK293 cells containing IL-23R, IL-12Rβ1 and a firefly luciferase reporter gene driven by a STAT-inducible promoter (Promega); host or cells: HEK293
T1 sequence (Q5VWK5 24-629): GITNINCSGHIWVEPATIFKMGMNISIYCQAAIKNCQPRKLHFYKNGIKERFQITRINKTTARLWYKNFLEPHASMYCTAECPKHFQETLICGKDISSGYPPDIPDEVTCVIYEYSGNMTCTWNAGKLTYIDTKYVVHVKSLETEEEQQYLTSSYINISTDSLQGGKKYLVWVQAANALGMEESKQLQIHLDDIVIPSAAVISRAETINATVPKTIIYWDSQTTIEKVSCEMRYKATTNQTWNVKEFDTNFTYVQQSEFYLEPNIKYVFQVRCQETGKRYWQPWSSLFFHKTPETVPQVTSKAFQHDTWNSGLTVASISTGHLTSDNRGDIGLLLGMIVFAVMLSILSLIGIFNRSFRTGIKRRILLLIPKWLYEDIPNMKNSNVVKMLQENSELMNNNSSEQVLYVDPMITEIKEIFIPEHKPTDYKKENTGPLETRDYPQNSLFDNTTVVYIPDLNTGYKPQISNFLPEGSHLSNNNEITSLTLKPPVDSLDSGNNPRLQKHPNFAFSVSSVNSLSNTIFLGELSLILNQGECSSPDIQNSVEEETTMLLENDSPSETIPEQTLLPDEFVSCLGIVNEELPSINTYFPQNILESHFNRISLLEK
In short: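 HEK293 cells carrying IL-23R, IL-12Rβ1 and a STAT-driven firefly luciferase reporter (4000 cells/well) received compound, then 10 ng/mL IL-23 solution (EC90), and were incubated for 5 h at 37° C. BioGlo luminescence was normalised to IL-23 alone (0%) and 30 μM control inhibitor (100%). IC50 came from a 4-parameter Hill fit.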

[1] = tested on: IL-23-stimulated phosphorylated STAT3 in peripheral blood mononuclear cells (PBMCs); test: PBMC pSTAT3 Assay; format: cell-based; conditions: PBMCs from healthy donors; 30 min preincubation with peptide; IL-23 5 ng/mL for 30 min; phospho-STAT3 by MSD
In short: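 Healthy-donor PBMCs expanded 4 days on anti-CD3 with 100 ng/mL IL-1β, starved ~4 h in RPMI-0.1% BSA, preincubated 30 min with peptide, then stimulated 30 min at 37 °C with 5 ng/mL IL-23. Lysate pSTAT3 measured by MSD phospho-STAT panel; IC50 derived.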

Row | SMILES | pIC50 (IL-23R) | pIC50 [1]
1 | CC(=O)NCCCC[C@@H]1NC(=O)[C@H](Cc2c[nH]c3c(C)cccc23)NC(=O)[C@H]([C@@H](C)O)NC(=O)[C@H](CCCCCC(=O)CCC(=O)N[C@H](CC(=O)O)C[N+](C)(C)C)NC(=O)[C@@H](NC(=O)[C@@H](CCCNC(=N)N)NC(C)=O)C(C)(C)SSC(C)(C)[C@@H](C(=O)C[C@@H](Cc2ccc(OCCN)cc2)C(=O)N[C@@H](Cc2ccc3ccccc3c2)C(=O)NC2(C(=O)N[C@@H](CCCCNC(=O)COCCOCCNC(=O)COCCOCCNC(=O)CC[C@H](NC(=O)CCCCCCCCCCCCCCCCC(=O)O)C(=O)O)C(=O)N[C@@H](CC(N)=O)C(=O)N[C@@H](Cc3cccnc3)C(=O)N(C)CC(N)=O)CCOCC2)NC1=O [compound 37, MeCO-r-Pen(3)-K(d)-T-7MeW-K(Ac)-Pen(3)-AEF-2Nal-THP-K(PEG2PEG2gEC18OH)-N-3Pya-Sar-CONH2] (I: [2Nal][Thp]K([AEEA-AEEA-γGlu-C18 diacid])N[3Pal][Sar]-NH2 / II: Ac-[dR][Pen][X25]T[Trp(7-Me)]K(Ac); linker I:N-II:2-II:C via X19) | > 7.30 | > 9.30
2 | CC(=O)NCCCC[C@@H]1NC(=O)[C@H](Cc2c[nH]c3c(C)cccc23)NC(=O)[C@H]([C@@H](C)O)NC(=O)[C@H](CC(N)=O)NC(=O)[C@@H](NC(=O)[C@@H](CCCCNC(=O)CCOCCOCCOCCOCCOCCOCCOCCOCCOCCOCCOCCOCCNC(=O)CC[C@H](NC(=O)CCCCCCCCCCCCCCCCC(=O)O)C(=O)O)NC(C)=O)C(C)(C)SSC(C)(C)[C@@H](C(=O)N[C@@H](Cc2ccc(OCCN)cc2)C(=O)N[C@@H](Cc2ccc3ccccc3c2)C(=O)NC2(C(=O)N[C@@H](CCCCNC(C)=O)C(=O)N[C@@H](CC(N)=O)C(=O)N[C@@H](Cc3cccnc3)C(=O)N(C)CC(N)=O)CCOCC2)NC1=O [compound 98, MeCO-k(PEG12gEC18OH)-Pen(3)-N-T-7MeW-K(Ac)-Pen(3)-AEF-2Nal-THP-K(Ac)-N-3Pya-Sar-CONH2] (Ac-[dK]([PEG12-γGlu-C18 diacid])[Pen]NT[Trp(7-Me)]K(Ac)[Pen][AEF][2Nal][Thp]K(Ac)N[3Pal][Sar]-NH2; disulfide 2-7) | > 7.30 | > 9.30
3 | CC(=O)NCCCC[C@@H]1NC(=O)[C@H](Cc2c[nH]c3c(C)cccc23)NC(=O)[C@H]([C@@H](C)O)NC(=O)[C@H](CCCCNC(=O)COCCOCCNC(=O)COCCOCCNC(=O)CC[C@H](NC(=O)CCCCCCCCCCCCCCCCC(=O)O)C(=O)O)NC(=O)[C@@H](NC(=O)[C@@H](CCCNC(=N)N)NC(=O)CCC(=O)N[C@H](CC(=O)O)C[N+](C)(C)C)C(C)(C)SSC(C)(C)[C@@H](C(=O)N[C@@H](Cc2ccc(OCCN)cc2)C(=O)N[C@@H](Cc2ccc3ccccc3c2)C(=O)NC2(C(=O)N[C@@H](CCC(=O)O)C(=O)N[C@@H](CC(N)=O)C(=O)N[C@@H](Cc3cccnc3)C(=O)N(C)CC(N)=O)CCOCC2)NC1=O [compound 18, succiniccarn-r-Pen(3)-K(PEG2PEG2gEC18OH)-T-7MeW-K(Ac)-Pen(3)-AEF-2Nal-THP-E-N-3Pya-Sar-CONH2] ({X2-Suc}-[dR][Pen]K([AEEA-AEEA-γGlu-C18 diacid])T[Trp(7-Me)]K(Ac)[Pen][AEF][2Nal][Thp]EN[3Pal][Sar]-NH2; disulfide 2-7) | 6.30 to 7.30 | > 9.30
4 | CC(=O)N[C@H](CCCNC(=N)N)C(=O)N[C@@H]1C(=O)N[C@@H](CC(N)=O)C(=O)N[C@@H]([C@@H](C)O)C(=O)N[C@@H](Cc2c[nH]c3c(C)cccc23)C(=O)N[C@@H](CCCCNC(=O)CCC(=O)N[C@H](CC(=O)O)C[N+](C)(C)C)C(=O)N[C@H](C(=O)N[C@@H](Cc2ccc(OCCN)cc2)C(=O)N[C@@H](Cc2ccc3ccccc3c2)C(=O)NC2(C(=O)N[C@@H](CCC(=O)O)C(=O)N[C@@H](CC(N)=O)C(=O)N[C@@H](Cc3cccnc3)C(=O)N(C)CC(=O)N[C@@H](CCCCNC(=O)COCCOCCNC(=O)COCCOCCNC(=O)CC[C@H](NC(=O)CCCCCCCCCCCCCCCCC(=O)O)C(=O)O)C(N)=O)CCOCC2)C(C)(C)SSC1(C)C [compound 52, MeCO-r-Pen(3)-N-T-7MeW-K(d)-Pen(3)-AEF-2Nal-THP-E-N-3Pya-Sar-K(PEG2PEG2gEC18OH)-CONH2] (Ac-[dR][Pen]NT[Trp(7-Me)]K([Suc-X2])[Pen][AEF][2Nal][Thp]EN[3Pal][Sar]K([AEEA-AEEA-γGlu-C18 diacid])-NH2; disulfide 2-7) | 6.30 to 7.30 | > 9.30
5 | CC(=O)NCCCC[C@@H]1NC(=O)[C@H](Cc2c[nH]c3c(C)cccc23)NC(=O)[C@H]([C@@H](C)O)NC(=O)[C@H](CC(N)=O)NC(=O)[C@@H](NC(C)=O)C(C)(C)SSC(C)(C)[C@@H](C(=O)N[C@@H](Cc2ccc(OCCN)cc2)C(=O)N[C@@H](Cc2ccc3ccccc3c2)C(=O)NC2(C(=O)N[C@@H](CCCCNC(=O)CCC(=O)N[C@H](CC(=O)O)C[N+](C)(C)C)C(=O)N[C@@H](CC(N)=O)C(=O)N[C@@H](Cc3cccnc3)C(=O)N(C)[C@@H](CCCCNC(=O)COCCOCCNC(=O)COCCOCCNC(=O)CC[C@H](NC(=O)CCCCCCCCCCCCCCCCC(=O)O)C(=O)O)C(N)=O)CCOCC2)NC1=O [compound 28, MeCO-Pen(3)-N-T-7MeW-K(Ac)-Pen(3)-AEF-2Nal-THP-K(d)-N-3Pya-NMeK(PEG2PEG2gEC18OH)-CONH2] | 6.30 to 7.30 | > 9.30

The next lines start with results.

Row | pIC50 (IL-23R) | SMILES | pIC50 [1]
6 | > 7.30 | CC(=O)NCCCC[C@@H]1NC(=O)[C@H](Cc2c[nH]c3c(C)cccc23)NC(=O)[C@H]([C@@H](C)O)NC(=O)[C@H](CCCCNC(=O)CCOCCOCCOCCOCCOCCOCCOCCOCCOCCOCCOCCOCCNC(=O)CC[C@H](NC(=O)CCCCCCCCCCCCCCCCC(=O)O)C(=O)O)NC(=O)[C@@H](NC(=O)[C@@H](CCCNC(=N)N)NC(C)=O)C(C)(C)SSC(C)(C)[C@@H](C(=O)N[C@@H](Cc2ccc(OCCN)cc2)C(=O)N[C@@H](Cc2ccc3ccccc3c2)C(=O)NC2(C(=O)N[C@@H](CCC(=O)O)C(=O)N[C@@H](CC(N)=O)C(=O)N[C@@H](Cc3cccnc3)C(=O)N(C)CC(N)=O)CCOCC2)NC1=O [compound 99, MeCO-r-Pen(3)-K(PEG12gEC20OH)-T-7MeW-K(Ac)-Pen(3)-AEF-2Nal-THP-E-N-3Pya-Sar-CONH2] (Ac-[dR][Pen]K([PEG12-γGlu-C18 diacid])T[Trp(7-Me)]K(Ac)[Pen][AEF][2Nal][Thp]EN[3Pal][Sar]-NH2; disulfide 2-7) | > 9.30
7 | ≤ 6.30 | CC(=O)NCCCC[C@@H]1NC(=O)[C@H](Cc2c[nH]c3c(C)cccc23)NC(=O)[C@H]([C@@H](C)O)NC(=O)[C@H](CC(N)=O)NC(=O)[C@@H](NC(C)=O)C(C)(C)SSC(C)(C)[C@@H](C(=O)N[C@@H](Cc2ccc(OCCN)cc2)C(=O)CC(Cc2ccc3ccccc3c2)C(=O)NC2(C(=O)N[C@@H](CCC(=O)O)C(=O)N[C@@H](CC(N)=O)C(=O)N[C@@H](Cc3cccnc3)C(=O)N(C)CC(=O)N[C@@H](CCCCNC(=O)COCCOCCNC(=O)COCCOCCNC(=O)CC[C@H](NC(=O)CCCCCCCCCCCCCCCCC(=O)O)C(=O)O)C(=O)N(C)C)CCOCC2)NC1=O (stereo partly drawn) [compound 149, MeCO-Pen(3)-N-T-7MeW-K(Ac)-Pen(3)-AEF-2Nal-THP-E-N-3Pya-Sar-K(PEG2PEG2gEC18OH)-CON(Me)2] (I: Ac-[Pen]NT[Trp(7-Me)]K(Ac)[Pen] / II: [Thp]EN[3Pal][Sar]K([AEEA-AEEA-γGlu-C18 diacid])-NMe2; disulfide I:1-I:6; linker I:C-II:N via X35) | ≤ 8.30
8 | 6.30 to 7.30 | C=C(O)CCCCCCCCCCCCCCCCC(=O)N[C@@H](CCC(=O)NCCOCCOCC(=O)NCCCCCOCC(=O)NCCCC[C@@H]1NC(=O)[C@@H](NC(=O)CCOCCOCC[N+](C)(C)C)CCCC[C@@H](C(=O)N[C@@H](Cc2ccc(OCCOCCOCC[N+](C)(C)C)cc2)C(=O)N[C@@H](Cc2ccc3ccccc3c2)C(=O)NC2(C(=O)N[C@@H](CCCCN(C)C(C)=O)C(=O)N[C@@H](CC(N)=O)C(=O)N[C@@H](Cc3cccnc3)C(=O)N(C)CC(=O)N(C)C)CCCCC2)NC(=O)[C@H](CCCCN(C)C(C)=O)NC(=O)[C@H](Cc2c[nH]c3c(C)cccc23)NC(=O)[C@H]([C@@H](C)O)NC1=O)C(=O)O [compound 158, cPEG3aCO-Pen(3)-K(PEG2PEG2gEC18OH)-T-7MeW-K(NMeAc)-Pen(3)-APEG3F-2Nal-THP-K(NMeAc)-N-3Pya-Sar-CON(Me)2] | 8.30 to 9.30

Reference: US20260250320A1, “LIPIDATED PEPTIDE INHIBITORS OF INTERLEUKIN-23 RECEPTOR” (Janssen Pharmaceutica NV, priority 2023, published 2026)
